From ChEMBL document CHEMBL3400040, “Antileishmanial pharmacomodulation in 8-nitroquinolin-2(1H)-one series” (Bioorg Med Chem, 2015) come the findings set out here.

Series [1] deals with Leishmania donovani. Briefly: Antileishmanial activity against intracellular amastigote stage of Leishmania donovani MHOM/IN/00/DEVI infected in human THP1 cells assessed as decrease infected macrophages after 120 hrs by microscopy. As to conditions: THP-1, 120 h. The class given is functional, organism-based.
Series [2] deals with Leishmania donovani. Kind of series: Antileishmanial activity against promastigote stage of Leishmania donovani MHOM/IN/00/DEVI assessed as inhibition of metabolic activity after 72 hrs by MTT assay. The series is classed as functional, organism-based. On the technique in general: Formazan colour is commonly taken as a measure of viable cells.
A short description of series [3]: (§1) Cytotoxicity against human HepG2 cells after 72 hrs by MTT assay. The conditions noted are these: HepG2 cells. The class given is cell-based.
The nature of series [4]: Selectivity index, CC50 for human HepG2 cells to IC50 for promastigote stage of Leishmania donovani MHOM/IN/00/DEVI. The class given is functional.
The test system of a further series is HepG2. Described as §1. The series is classed as cell-based. As to conditions: hepg2, 72 h.
Series [5] is described as follows: Cytotoxicity against mouse J774A.1 cells after 72 hrs by MTT assay. The series is classed as cell-based. The conditions noted are these: J774.1, 72 h.
The next series concerns Leishmania infantum. Briefly: Antileishmanial activity against intracellular amastigote stage of Leishmania infantum MHOM/MA/67/ITMAP-263 expressing luciferase infected in mouse J774A1 cells assessed as inhibition of metabolic activity after 120 hrs by luminescence assay. The class given is functional, organism-based. The conditions noted are these: MHOM/MA/67/ITMAP-263, J774.A1, 120 h.

Another series relates to THP-1. Kind of series: Cytotoxicity against human THP1 cells after 72 hrs by MTT assay. The class given is cell-based. As to conditions: THP-1, 72 h.
Where [6] appears, read: Leishmania donovani, MHOM/IN/00/DEVI, 72 h, read-out: IC50.

Bounds are passed on as bounds.

One may read the IC50 as the concentration that gives 50% inhibition. Turning to `O=C(c1cccc([N+](=O)[O-])c1)c1ccc2ccc(/C=C/c3ccc(O)c(O)c3)nc2c1O`, the IC50 in the series with Leishmania donovani [1] came to 1.22 µM.

`O=[N+]([O-])c1c(CS(=O)(=O)c2ccccc2)nc2c(Br)cc(Br)cn12`: in the series on Leishmania donovani [1], the IC50 was found to be 5.5 µM.

Take `Cc1nc2c(Cl)cccc2c(O)c1CN1CCCCC1C` (stereo not given): the IC50 in the series on Leishmania donovani [1] stood at 0.06 µM.

In general, CC50 refers to the concentration giving 50% cytotoxicity. Low readings indicate harm at low concentration, high ones better tolerance by the cells. Consider `Nc1cccc2ccc(=O)[nH]c12`, for which the IC50 with Leishmania donovani [2] (setting [6]) is over 50 µM. The same compound yielded a CC50 at 72 h in series [3] of over 100 µM.

Regarding `O=[N+]([O-])c1cccc2c(Br)cc(Br)nc12`, the IC50 in the series with Leishmania donovani [2] (setting [6]) was over 50 µM. In addition, the CC50 at 72 h in series [3] was over 100 µM.

For the compound `O=c1cc(Br)c2cccc([N+](=O)[O-])c2[nH]1`, the IC50 in the series with Leishmania donovani [2] (setting [6]) amounted to 9.6 µM. In series [3], this compound returned a CC50 at 72 h of 27.1 µM.

For the compound `O=c1cc(C#Cc2ccccc2)c2cccc([N+](=O)[O-])c2[nH]1`, the IC50 in the series with Leishmania donovani [2] (setting [6]) came out at 2.7 µM. For the same compound, the CC50 at 72 h in series [3] worked out at 11.6 µM. Moreover, the “Ratio CC50/IC50” value in series [4] amounted to 4.4.

In the case of `O=c1cc(C#Cc2ccc(Cl)cc2)c2cccc([N+](=O)[O-])c2[nH]1`, the IC50 result in the series on Leishmania donovani [2] is recorded as “ND(Insoluble)”. In addition, in the series with HepG2, the CC50 result is given as “ND(Insoluble)”.

As for `COc1cccc(C#Cc2cc(=O)[nH]c3c([N+](=O)[O-])cccc23)c1`, the IC50 with Leishmania donovani [2] (setting [6]) was over 10 µM. For the same compound, the half-maximal cytotoxic concentration (CC50) at 72 h in series [3] is over 10 µM.

On to `O=c1cc(C#CCOc2ccccc2)c2cccc([N+](=O)[O-])c2[nH]1`, for which the 50% inhibitory concentration (IC50) in the series with Leishmania donovani [2] (setting [6]) was determined as 1.4 µM. For the same compound, the midpoint of cytotoxicity in series [3], the CC50 at 72 h, lay at 1.8 µM. In addition, in series [4], the “Ratio CC50/IC50” value is 1.3.

For `O=c1cc(C#CCO)c2cccc([N+](=O)[O-])c2[nH]1`, the IC50 in the series with Leishmania donovani [2] (setting [6]) came to 2.4 µM. Besides, the half-maximal cytotoxic concentration (CC50) at 72 h in series [3] worked out at 2.1 µM. Also, the “Ratio CC50/IC50” value in series [4] is listed as 0.9.

In the case of `O=c1cc(C#CCCO)c2cccc([N+](=O)[O-])c2[nH]1`, the IC50 with Leishmania donovani [2] (setting [6]) is 21.8 µM. The same compound yielded a CC50 at 72 h in series [3] of 15.9 µM. For the same compound, the “Ratio CC50/IC50” value in series [4] was 0.7.

As for `CCC(O)CC#Cc1cc(=O)[nH]c2c([N+](=O)[O-])cccc12` (stereo not given), the IC50 in the series with Leishmania donovani [2] (setting [6]) turned out to be 16.7 µM. Besides, in series [3], half-maximal cytotoxicity (CC50 at 72 h) was put at 3.8 µM. In addition, the “Ratio CC50/IC50” value in series [4] is listed as 0.2.

Take `O=c1cc(-c2ccccc2)c2cccc([N+](=O)[O-])c2[nH]1`: the IC50 in the series with Leishmania donovani [2] (setting [6]) stood at 14.7 µM. In series [3], this compound gave a CC50 at 72 h of 31.9 µM. The “Ratio CC50/IC50” value in series [4] was found to be 2.2.

For the compound `O=c1cc(-c2ccco2)c2cccc([N+](=O)[O-])c2[nH]1`, the half-inhibitory concentration (IC50) in the series on Leishmania donovani [2] (setting [6]) was over 5 µM. In series [3], the CC50 at 72 h is over 31.3 µM.

For `Cc1ccc(-c2cc(=O)[nH]c3c([N+](=O)[O-])cccc23)s1`, the IC50 in the series with Leishmania donovani [2] (setting [6]) is over 5 µM. In series [3], the CC50 at 72 h is over 15.6 µM.

Turning to `O=c1cc(-c2cccnc2)c2cccc([N+](=O)[O-])c2[nH]1`, in the series with Leishmania donovani [2] (setting [6]), the IC50 was over 50 µM. This compound yielded a CC50 at 72 h in series [3] of 10.1 µM. Also, the “Ratio CC50/IC50” value in series [4] is reported as under 1.

For the compound `O=c1cc(-c2ccncc2)c2cccc([N+](=O)[O-])c2[nH]1`, the IC50 in the series with Leishmania donovani [2] (setting [6]) was 77.2 µM. It took 15.7 µM to reach half-maximal cytotoxicity in series [3] (CC50 at 72 h). Also, in series [4], the “Ratio CC50/IC50” value amounted to 0.2.

On to `O=c1cc(-c2ccc(C(F)(F)F)cc2)c2cccc([N+](=O)[O-])c2[nH]1`, for which the IC50 in the series with Leishmania donovani [2] (setting [6]) was 6.1 µM; in series [5], 33.4 µM; with Leishmania infantum it was 11.8 µM; in the series on THP-1 it was over 31.3 µM; with Leishmania donovani [1], over 20 µM. In series [3], the CC50 at 72 h amounted to 42.7 µM. The “Ratio CC50/IC50” value in series [4] is recorded as 7.

Regarding `O=c1cc(-c2ccc(Cl)cc2)c2cccc([N+](=O)[O-])c2[nH]1`, the IC50 in the series on Leishmania donovani [2] (setting [6]) came out at 4.2 µM. Further, the CC50 at 72 h in series [3] is 16.1 µM. The “Ratio CC50/IC50” value in series [4] amounted to 3.8.

Take `O=c1cc(-c2ccc(Br)cc2)c2cccc([N+](=O)[O-])c2[nH]1`: the 50% inhibitory concentration (IC50) in the series on Leishmania donovani [2] (setting [6]) is 3.3 µM; in series [5], 9 µM; with Leishmania infantum, over 20 µM; with THP-1, over 31.3 µM; in the series on Leishmania donovani [1], over 15.6 µM. For the same compound, the CC50 at 72 h in series [3] is over 31.3 µM. The “Ratio CC50/IC50” value in series [4] is on record as over 9.5.

Take `O=c1cc(-c2ccc(F)cc2)c2cccc([N+](=O)[O-])c2[nH]1`: the IC50 in the series with Leishmania donovani [2] (setting [6]) came to 28 µM. Moreover, the CC50 at 72 h in series [3] amounted to 36.1 µM. The “Ratio CC50/IC50” value in series [4] was 1.3.

In the case of `Cc1ccc(-c2cc(=O)[nH]c3c([N+](=O)[O-])cccc23)cc1`, the IC50 with Leishmania donovani [2] (setting [6]) was 9.1 µM. The midpoint of cytotoxicity in series [3], the CC50 at 72 h, lay at 31 µM. Moreover, the “Ratio CC50/IC50” value in series [4] was 3.4.

As to `COc1ccc(-c2cc(=O)[nH]c3c([N+](=O)[O-])cccc23)cc1`, the IC50 in the series with Leishmania donovani [2] (setting [6]) was determined as 28 µM. Besides, the CC50 at 72 h in series [3] was 37.1 µM. For the same compound, the “Ratio CC50/IC50” value in series [4] is 1.3.

`O=c1cc(-c2cccc(C(F)(F)F)c2)c2cccc([N+](=O)[O-])c2[nH]1`: the IC50 in the series with Leishmania donovani [2] (setting [6]) was over 5 µM. Moreover, in series [3], it took 14.7 µM to reach half-maximal cytotoxicity (CC50 at 72 h). Moreover, the “Ratio CC50/IC50” value in series [4] is on record as under 2.9.

Turning to `CC(C)(C)OCc1cc(=O)[nH]c2c([N+](=O)[O-])cccc12`, the IC50 with Leishmania donovani [2] (setting [6]) is over 50 µM. The compound further had a CC50 at 72 h in series [3] of 5.3 µM. Moreover, the “Ratio CC50/IC50” value in series [4] was under 0.1.

`CCCCCCCCCCCCc1cc(=O)[nH]c2c([N+](=O)[O-])cccc12`: in the series with Leishmania donovani [2], the IC50 result is “ND(Insoluble)”. In addition, the CC50 result in the series on HepG2 is on record as “ND(Insoluble)”.

As to `C[C@@H]1[C@H](O)[C@@H](C)/C=C/C=C/C=C/C=C/C=C/C=C/C=C/[C@H](O[C@@H]2O[C@H](C)[C@@H](O)[C@H](N)[C@@H]2O)C[C@@H]2O[C@](O)(C[C@@H](O)C[C@@H](O)[C@H](O)CC[C@@H](O)C[C@@H](O)CC(=O)O[C@H]1C)C[C@H](O)[C@H]2C(=O)O` [AMPHOTERICIN B], the IC50 in series [5] came out at 2.5 µM; in the series on Leishmania infantum, 0.06 µM; in the series on THP-1, 8.4 µM; in the series on Leishmania donovani [1] it was 0.16 µM.

In series [5], `COc1cccc2c1C(=O)c1c(O)c3c(c(O)c1C2=O)C[C@@](O)(C(=O)CO)C[C@@H]3O[C@H]1C[C@H](N)[C@H](O)[C@H](C)O1` [DOXORUBICIN] registered an IC50 of 0.06 µM.

As usually defined, the EC50 is the concentration needed to bring the measured effect to its halfway point. `CSc1ccc(OCc2ncc([N+](=O)[O-])n2C)cc1` [FEXINIDAZOLE]: in the series on Leishmania donovani [1], the EC50 is 2.8 µM.

Consider `CCCCCCCCCCCCCCCCOP(=O)([O-])OCC[N+](C)(C)C` [MILTEFOSINE], for which the IC50 in series [5] amounted to 90.4 µM; with Leishmania infantum, 4.2 µM; with THP-1 it was 40.5 µM; with Leishmania donovani [1] it was 6.8 µM.

As for `N=C(N)c1ccc(OCCCCCOc2ccc(C(=N)N)cc2)cc1` [PENTAMIDINE], the IC50 in series [5] was 1 µM; in the series on Leishmania infantum, over 20 µM; in the series with Leishmania donovani [1] it was over 20 µM. Moreover, the “Ratio CC50/IC50” value in series [4] is on record as 0.4.

Turning to `CCN(CC)CCCCCCNc1cc(OC)cc2c(C)ccnc12` [SITAMAQUINE], in the series on Leishmania donovani [1], the IC50 was 1 µM.
